Organism: Rattus norvegicus
Assay: DrugMatrix - Regimen: Daily Repeat
Assay type: toxicity, organism-based, Sprague-Dawley
Set-up: regimen Daily Repeat, gender Male, age 6-8 weeks
Details: in vivo, po, route oral GAVAGE, […]; for ABSOLUTE BASOPHIL / BASOPHIL / NUCLEATED RED BLOOD CELLS / ABSOLUTE EOSINOPHIL / EOSINOPHIL / HEMOGLOBIN / ABSOLUTE LYMPHOCYTE / ABSOLUTE MONOCYTE / ABSOLUTE SEGMENTED NEUTROPHIL / ERYTHROCYTE COUNT / HEMATOCRIT / LEUKOCYTE COUNT / LYMPHOCYTE / MEAN CORPUSCULAR HEMOGLOBIN / MEAN CORPUSCULAR HEMOGLOBIN CONCENTRATION / MEAN CORPUSCULAR VOLUME / MONOCYTE / NEUTROPHIL / PLATELET COUNT: tissue Blood; for TOTAL BILIRUBIN / ALANINE AMINOTRANSFERASE / ALBUMIN / ALKALINE PHOSPHATASE / ASPARTATE AMINOTRANSFERASE / BLOOD UREA NITROGEN / CARBON DIOXIDE / CHLORIDE / CHOLESTEROL / CREATINE PHOSPHOKINASE / CREATININE / GLUCOSE / LACTATE DEHYDROGENASE / LIPASE / PHOSPHORUS / POTASSIUM / SODIUM / TOTAL PROTEIN / URIC ACID: tissue Plasma
[1] = 0 mg/kg, 72 h, dose level Control, time 3 day
[2] = 0 mg/kg, 120 h, dose level Control, time 5 day
[3] = 3 mg/kg, 72 h, dose level Low, time 3 day
[4] = 3 mg/kg, 120 h, dose level Low, time 5 day
[5] = 9 mg/kg, 72 h, dose level M1, time 3 day

## CS(=O)(=O)OCCCCOS(C)(=O)=O [BUSULFAN]
[1]
  ABSOLUTE BASOPHIL: 0 CELLS/uL
  BASOPHIL: 0%
  NUCLEATED RED BLOOD CELLS: 0 /100WBC
  TOTAL BILIRUBIN: 0.2 mg/dL
[2]
  ABSOLUTE BASOPHIL: 0 CELLS/uL
  ABSOLUTE EOSINOPHIL: 0 CELLS/uL
  BASOPHIL: 0%
  EOSINOPHIL: 0%
  HEMOGLOBIN: 13.5 G/DL
[3]
  ABSOLUTE BASOPHIL: 0 CELLS/uL
  ABSOLUTE EOSINOPHIL: 108.33 CELLS/uL
  ABSOLUTE LYMPHOCYTE: 8850.33 CELLS/uL
  ABSOLUTE MONOCYTE: 34.33 CELLS/uL
  ABSOLUTE SEGMENTED NEUTROPHIL: 773.67 CELLS/uL
  BASOPHIL: 0%
  EOSINOPHIL: 1%
  ERYTHROCYTE COUNT: 4.94 x10E6/uL
  HEMATOCRIT: 32%
  HEMOGLOBIN: 12.67 G/DL
  LEUKOCYTE COUNT: 9.77 x10E3/uL
  LYMPHOCYTE: 91%
  MEAN CORPUSCULAR HEMOGLOBIN: 25.67 pg
  MEAN CORPUSCULAR HEMOGLOBIN CONCENTRATION: 39.6 G/DL
  MEAN CORPUSCULAR VOLUME: 64.8 fL
  MONOCYTE: 0.33%
  NEUTROPHIL: 7.67%
  NUCLEATED RED BLOOD CELLS: 0 /100WBC
  PLATELET COUNT: 940.33 x10E3/uL
  ALANINE AMINOTRANSFERASE: 62.33 u/L
  ALBUMIN: 3.77 G/DL
  ALKALINE PHOSPHATASE: 286.67 u/L
  ASPARTATE AMINOTRANSFERASE: 86.67 u/L
  BLOOD UREA NITROGEN: 12.33 mg/dL
  CARBON DIOXIDE: 33.5 mmol/L
  CHLORIDE: 101 MEQ/L
  CHOLESTEROL: 62.33 mg/dL
  CREATINE PHOSPHOKINASE: 229.33 u/L
  CREATININE: 0.12 mg/dL
  GLUCOSE: 162.67 mg/dL
  LACTATE DEHYDROGENASE: 71.67 u/L
  LIPASE: 12 u/L
  PHOSPHORUS: 10 mg/dL
  POTASSIUM: 5.22 MEQ/L
  SODIUM: 144.35 MEQ/L
  TOTAL BILIRUBIN: 0.13 mg/dL
  TOTAL PROTEIN: 5.37 G/DL
  URIC ACID: 0.47 mg/dL
[4]
  ABSOLUTE BASOPHIL: 0 CELLS/uL
  ABSOLUTE EOSINOPHIL: 12.67 CELLS/uL
  ABSOLUTE LYMPHOCYTE: 5804 CELLS/uL
  ABSOLUTE MONOCYTE: 73.33 CELLS/uL
  ABSOLUTE SEGMENTED NEUTROPHIL: 310 CELLS/uL
  BASOPHIL: 0%
  EOSINOPHIL: 0.33%
  ERYTHROCYTE COUNT: 5.4 x10E6/uL
  HEMATOCRIT: 33.53%
  HEMOGLOBIN: 12.9 G/DL
  LEUKOCYTE COUNT: 6.2 x10E3/uL
  LYMPHOCYTE: 92.67%
  MEAN CORPUSCULAR HEMOGLOBIN: 23.9 pg
  MEAN CORPUSCULAR HEMOGLOBIN CONCENTRATION: 38.5 G/DL
  MEAN CORPUSCULAR VOLUME: 62.07 fL
  MONOCYTE: 1.33%
  NEUTROPHIL: 5.67%
  NUCLEATED RED BLOOD CELLS: 0 /100WBC
  PLATELET COUNT: 1068.67 x10E3/uL
  ALANINE AMINOTRANSFERASE: 47.67 u/L
  ALBUMIN: 4.13 G/DL
  ALKALINE PHOSPHATASE: 363 u/L
  ASPARTATE AMINOTRANSFERASE: 87 u/L
  BLOOD UREA NITROGEN: 12.33 mg/dL
  CARBON DIOXIDE: 28.67 mmol/L
  CHLORIDE: 100 MEQ/L
  CHOLESTEROL: 62 mg/dL
  CREATINE PHOSPHOKINASE: 290.67 u/L
  CREATININE: 0.16 mg/dL
  GLUCOSE: 165.67 mg/dL
  LACTATE DEHYDROGENASE: 77.67 u/L
  LIPASE: 13.33 u/L
  PHOSPHORUS: 9.3 mg/dL
  POTASSIUM: 5.76 MEQ/L
  SODIUM: 145.25 MEQ/L
  TOTAL BILIRUBIN: 0.17 mg/dL
  TOTAL PROTEIN: 6 G/DL
  URIC ACID: 0.53 mg/dL
[5]
  ABSOLUTE BASOPHIL: 0 CELLS/uL
  ABSOLUTE EOSINOPHIL: 0 CELLS/uL
  ABSOLUTE LYMPHOCYTE: 12304.67 CELLS/uL
  ABSOLUTE MONOCYTE: 88.33 CELLS/uL
  ABSOLUTE SEGMENTED NEUTROPHIL: 840.33 CELLS/uL
  BASOPHIL: 0%
  EOSINOPHIL: 0%
  ERYTHROCYTE COUNT: 5.46 x10E6/uL
  HEMATOCRIT: 33.63%
  HEMOGLOBIN: 13.23 G/DL
  LEUKOCYTE COUNT: 13.23 x10E3/uL
  LYMPHOCYTE: 92.67%
  MEAN CORPUSCULAR HEMOGLOBIN: 24.27 pg
  MEAN CORPUSCULAR HEMOGLOBIN CONCENTRATION: 39.37 G/DL
  MEAN CORPUSCULAR VOLUME: 61.57 fL
  MONOCYTE: 0.67%
  NEUTROPHIL: 6.67%
  NUCLEATED RED BLOOD CELLS: 0 /100WBC
  PLATELET COUNT: 1234.33 x10E3/uL
  ALANINE AMINOTRANSFERASE: 56.33 u/L
  ALBUMIN: 4.03 G/DL
  ALKALINE PHOSPHATASE: 362 u/L
  ASPARTATE AMINOTRANSFERASE: 76 u/L
  BLOOD UREA NITROGEN: 13 mg/dL
  CARBON DIOXIDE: 29.33 mmol/L
  CHLORIDE: 102.33 MEQ/L
  CHOLESTEROL: 77 mg/dL
  CREATINE PHOSPHOKINASE: 320.33 u/L
  CREATININE: 0.19 mg/dL
  GLUCOSE: 162.67 mg/dL
  LACTATE DEHYDROGENASE: 161.33 u/L
  LIPASE: 12 u/L
  PHOSPHORUS: 10.37 mg/dL

Reference: ChEMBL document CHEMBL3885881, “DrugMatrix”
